Measured values: the supplement of paper PMC10307832

Compound: CC(C)(C)c1nc(-c2cccc(NS(=O)(=O)c3c(F)cccc3F)c2F)c(-c2ccnc(N)n2)s1 [Dabrafenib] + CCNC(=O)c1noc(-c2cc(C(C)C)c(O)cc2O)c1-c1ccc(CN2CCOCC2)cc1 [Luminespib] (partner 0.01 µM)
Experiment: relative viability (nuclei count vs DMSO), 5 days (fraction); higher = more cells survive
Details: first compound 0.003 µM
How it was run: (§1)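 Cells from lung cancer lines were seeded into 1536-well plates and, one day later, dosed by pin tool. Treatments were either a single drug or a fixed dose of an anchor drug with five library-drug doses (not always all listed) in √10 steps. After 5 days, nuclei were stained in a one-step fixation (final 0.05% Triton X-100, 1% formaldehyde, 1 ug/ml Hoechst) and counted on 4× images, and relative viability is the treated-to-vehicle nuclei ratio, as the median of duplicate plates.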

First: NCI-H2342
Second: EPLC-272H
The relative viability of the first is higher: 0.666 for the first, 0.156 for the second.

First: NCI-H3122
Second: NCI-H1915
The relative viability of the first is lower: 0.0822 for the first, 0.981 for the second.

First: NCI-H1975
Second: LK-2
The relative viability of the first is lower: 0.159 for the first, 0.185 for the second.

First: LCLC-97TM1
Second: NCI-H661
The relative viability of the first is lower: 0.764 for the first, 0.985 for the second.

First: NCI-H1993
Second: PC-3 [JPC-3]
The relative viability of the first is lower: 0.68 for the first, 0.782 for the second.

Going from NCI-H2009 to NCI-H520, the relative viability falls from 1.01 to 0.228.

Compared with LXF-289, 201T is higher in relative viability: 0.651 for the first, 1.08 for the second.

Same assay, conditions: first compound 0.009487 µM

Compared with NCI-H1355, HCC-15 is lower in relative viability: 0.83 for the first, 0.634 for the second.

Going from LU99A to EKVX, the relative viability rises from 0.212 to 1.03.

Compared with COR-L23, NCI-H1437 is higher in relative viability: 0.76 for the first, 1.13 for the second.

Going from RERF-LC-KJ to NCI-H1734, the relative viability falls from 1.3 to 0.175.

First: BEN
Second: NCI-H460
The relative viability of the first is higher: 0.549 for the first, 0.0312 for the second.

Compared with H3255, SK-LU-1 is lower in relative viability: 0.961 for the first, 0.234 for the second.

Compared with NCI-H1793, SW 1573 is higher in relative viability: 0.231 for the first, 0.314 for the second.

First: NCI-H838
Second: NCI-H2342
The relative viability of the first is lower: 0.311 for the first, 0.563 for the second.

Compared with EPLC-272H, NCI-H3122 is lower in relative viability: 0.233 for the first, 0.0926 for the second.

First: NCI-H1915
Second: NCI-H727
The relative viability of the first is higher: 0.706 for the first, 0.339 for the second.

Going from NCI-H1975 to LK-2, the relative viability falls from 0.189 to 0.187.

Compared with NCI-H2087, LCLC-97TM1 is higher in relative viability: 0.202 for the first, 0.745 for the second.

First: NCI-H661
Second: NCI-H2405
The relative viability of the first is higher: 0.927 for the first, 0.619 for the second.

First: NCI-H1993
Second: PC-3 [JPC-3]
The relative viability of the first is higher: 0.984 for the first, 0.649 for the second.

Going from NCI-H2009 to NCI-H2347, the relative viability falls from 0.967 to 0.508.

Compared with NCI-H520, LXF-289 is higher in relative viability: 0.213 for the first, 0.73 for the second.

Compared with NCI-H358, LC-2-ad is higher in relative viability: 0.396 for the first, 1.16 for the second.

Work on 201T yielded a relative viability of 1.1.

Same assay, conditions: first compound 0.03 µM

First: NCI-H1355
Second: HCC-15
The relative viability of the first is higher: 0.611 for the first, 0.285 for the second.

First: LU99A
Second: EKVX
The relative viability of the first is lower: 0.225 for the first, 0.852 for the second.

First: COR-L23
Second: NCI-H1437
The relative viability of the first is lower: 0.544 for the first, 1.17 for the second.

Compared with RERF-LC-KJ, NCI-H1734 is lower in relative viability: 1.26 for the first, 0.207 for the second.

First: NCI-H460
Second: H3255
The relative viability of the first is lower: 0.0334 for the first, 0.908 for the second.

Compared with SK-LU-1, NCI-H23 is higher in relative viability: 0.169 for the first, 0.225 for the second.

First: SW 1573
Second: NCI-H838
The relative viability of the first is higher: 0.289 for the first, 0.236 for the second.

Compared with NCI-H2342, EPLC-272H is lower in relative viability: 0.707 for the first, 0.467 for the second.

Compared with NCI-H3122, NCI-H1915 is higher in relative viability: 0.0643 for the first, 0.61 for the second.

Going from NCI-H727 to NCI-H1975, the relative viability falls from 0.324 to 0.165.

First: NCI-H2087
Second: LCLC-97TM1
The relative viability of the first is lower: 0.163 for the first, 0.584 for the second.

Going from NCI-H661 to NCI-H1993, the relative viability falls from 0.912 to 0.812.

First: PC-3 [JPC-3]
Second: NCI-H2009
The relative viability of the first is lower: 0.655 for the first, 0.911 for the second.

Compared with NCI-H2347, NCI-H520 is lower in relative viability: 0.231 for the first, 0.21 for the second.

Going from LXF-289 to NCI-H358, the relative viability falls from 0.675 to 0.35.

Going from LC-2-ad to 201T, the relative viability falls from 1.27 to 0.967.

Same assay, conditions: first compound 0.09487 µM

Going from NCI-H1355 to HCC-15, the relative viability falls from 0.628 to 0.0381.

Compared with LU99A, EKVX is higher in relative viability: 0.3 for the first, 0.819 for the second.

First: COR-L23
Second: NCI-H1437
The relative viability of the first is lower: 0.603 for the first, 1.17 for the second.

Compared with RERF-LC-KJ, NCI-H1734 is lower in relative viability: 1.31 for the first, 0.203 for the second.

Going from BEN to NCI-H460, the relative viability falls from 0.344 to 0.042.

Compared with H3255, SK-LU-1 is lower in relative viability: 0.96 for the first, 0.22 for the second.

First: NCI-H23
Second: SW 1573
The relative viability of the first is lower: 0.195 for the first, 0.633 for the second.

First: NCI-H838
Second: NCI-H2342
The relative viability of the first is lower: 0.292 for the first, 0.769 for the second.

First: EPLC-272H
Second: NCI-H3122
The relative viability of the first is higher: 0.272 for the first, 0.131 for the second.

Going from NCI-H1915 to NCI-H1975, the relative viability falls from 0.523 to 0.278.

Compared with LK-2, NCI-H2087 is higher in relative viability: 0.153 for the first, 0.154 for the second.

First: LCLC-97TM1
Second: NCI-H661
The relative viability of the first is lower: 0.756 for the first, 0.758 for the second.

Compared with NCI-H2405, NCI-H1993 is higher in relative viability: 0.528 for the first, 0.828 for the second.

Compared with PC-3 [JPC-3], NCI-H2009 is higher in relative viability: 0.736 for the first, 0.879 for the second.

Compared with NCI-H2347, NCI-H520 is lower in relative viability: 0.71 for the first, 0.262 for the second.

Compared with LXF-289, LC-2-ad is higher in relative viability: 0.589 for the first, 1.04 for the second.

In the case of 201T, the relative viability is reported as 0.983.

Same assay, conditions: first compound 0.3 µM

First: NCI-H1355
Second: HCC-15
The relative viability of the first is higher: 0.69 for the first, 0.52 for the second.

First: LU99A
Second: EKVX
The relative viability of the first is lower: 0.29 for the first, 0.897 for the second.

Compared with COR-L23, NCI-H1437 is higher in relative viability: 0.771 for the first, 1.14 for the second.

Going from RERF-LC-KJ to NCI-H1734, the relative viability falls from 1.25 to 0.198.

Going from BEN to NCI-H460, the relative viability falls from 0.332 to 0.0437.

First: H3255
Second: SK-LU-1
The relative viability of the first is higher: 0.871 for the first, 0.201 for the second.

First: NCI-H1793
Second: NCI-H23
The relative viability of the first is lower: 0.175 for the first, 0.226 for the second.

Compared with SW 1573, NCI-H838 is higher in relative viability: 0.217 for the first, 0.275 for the second.

First: NCI-H2342
Second: EPLC-272H
The relative viability of the first is higher: 0.842 for the first, 0.546 for the second.

Compared with NCI-H3122, NCI-H1915 is higher in relative viability: 0.0575 for the first, 0.62 for the second.

Compared with NCI-H727, NCI-H1975 is lower in relative viability: 0.414 for the first, 0.191 for the second.

Going from LK-2 to NCI-H2087, the relative viability rises from 0.157 to 0.207.

First: LCLC-97TM1
Second: NCI-H661
The relative viability of the first is lower: 0.775 for the first, 0.855 for the second.

Going from NCI-H2405 to NCI-H1993, the relative viability rises from 0.642 to 1.06.

Compared with PC-3 [JPC-3], NCI-H2009 is higher in relative viability: 0.696 for the first, 0.79 for the second.

Going from NCI-H2347 to NCI-H520, the relative viability falls from 0.458 to 0.224.

First: LXF-289
Second: NCI-H358
The relative viability of the first is higher: 0.752 for the first, 0.237 for the second.

Going from LC-2-ad to 201T, the relative viability rises from 0.947 to 1.06.

Compound: CC(C)(C)c1nc(-c2cccc(NS(=O)(=O)c3c(F)cccc3F)c2F)c(-c2ccnc(N)n2)s1 [Dabrafenib] + O=C(CCCCCCC(=O)Nc1ccccc1)NO [Vorinostat] (partner 1 µM)
Experiment: as above
Details: first compound 0.003 µM
How it was run: as §1

Going from HCC-15 to LU99A, the relative viability falls from 0.862 to 0.549.

Going from COR-L23 to NCI-H1437, the relative viability rises from 0.387 to 0.839.

Going from RERF-LC-KJ to NCI-H460, the relative viability falls from 0.745 to 0.744.

In the case of H3255, the relative viability is reported as 0.762.
